The text below walks through data of article PMC6930638, “The Masked Polar Group Incorporation (MPGI) Strategy in Drug Design: Effects of Nitrogen Substitutions on Combretastatin and Isocombretastatin Tubulin Inhibitors” (Molecules, 2019).

In brackets after ≈: the same amount, converted by molar mass.

Data set [1] can be described thus: Aqueous solubility determination (shake flask, UV). Format: physicochemical. The note with it: phosphate buffer, pH 7, aqueous buffer, thermodynamic from solid, phosphate buffer pH 7.0, 48 h stirring, filtered, UV; read-out: Solub.
Data set [2] has as its system rat primary pancreatic cells. The data set can be described thus: Toxicity against rat primary pancreatic cells (MTT). To be noted: for live cells with respect to the non-treated control (means ± S.E.M.): rat, 7 h, pH 7.4. As for the experimental part:
The toxicity of the compounds against rat primary pancreatic cells was evaluated by the MTT protocol (Table 2). […] Sodium taurocholate (NaTc) was also used at high concentrations as a model of acute pancreatitis in vitro.
Rat primary pancreatic cells were isolated as previously described. Afterwards, pancreatic cells were resuspended in Na-HEPES solution (pH 7.4) containing 14 mM glucose, 1% essential amino acid mixture, 1% (w/v) BSA, 0.01% (w/v) STI, 0.5 mM CaCl2 and incubated (5% CO2, at 37 °C) for 7 h in the absence (non-treated control) or the presence of compounds at different concentrations. After the treatment, cells were incubated (5% CO2, at 37 °C) with 0.5 mg/mL MTT for 2 h and the formazan crystals were solubilized with DMSO (v/v). The optical density was read at 570 nm with a reference wavelength of 630 nm. Non-treated cell viability was set as 100%.

Data set [3] deals with Bovine brain microtubule protein (MTP). The data set can be described thus: Tubulin polymerization inhibition assay (turbidimetry). Type of data set: biochemical. The note with it: 1.5 mg/mL MTP; IC50 calculated only if more than 50% inhibition at 20 µM; read-out: TPI IC50.
The subject of data set [4] is HeLa cervix epithelioid carcinoma. The data set can be described thus: MTT cell antiproliferative assay, HeLa. Type of data set: cell-based. To be noted: Homo sapiens, 72 h. (In general: Formazan colour is commonly taken as a measure of viable cells.)

In general, IC50 refers to the concentration at which inhibition is half-maximal. Regarding `C=C(c1ccc(N(C)C)nc1)c1cc(OC)c(OC)c(OC)c1` [Compound 3b, N,N-Dimethyl-5-(1-(3,4,5-trimethoxyphenyl)vinyl)pyridin-2-amine], the solubility at 48 h in data set [1] came to 13.5 µg/mL (≈ 42.9 µM). The “toxicity against primary pancreatic cultured cells” value (from here on “toxicity”) in data set [2] is on record as “very low toxicity”. Besides, the “live cells with respect to the non-treated control (means ± S.E.M.)” value in data set [2] (0.25 µM) worked out at 112.81 ± 19.30%; in data set [2] (0.5 µM) it was 94.06 ± 13.13%. Moreover, the results for the concentration for half-maximal inhibition (IC50) in data set [3] and in data set [4] were 35900 nM and 150 nM, respectively.
In the case of `COc1cc(C=Cc2ccc(N(C)C)nc2)cc(OC)c1OC` [Compound 8b, N,N-dimethyl-5-(3,4,5-trimethoxystyryl)pyridin-2-amine], the solubility at 48 h in data set [1] was 44 µg/mL (≈ 140 µM). Moreover, in data set [2], the “toxicity” value was “very low toxicity”. Also, the “live cells with respect to the non-treated control (means ± S.E.M.)” value in data set [2] (0.25 µM) came to 94.31 ± 11.83%; in data set [2] (0.5 µM), 91.65 ± 13.88%. In addition, the concentration for half-maximal inhibition (IC50) in data set [3] was 5100 nM; in data set [4], 57 nM.
On to `COc1cc(C(=O)c2ccnc(N3CCCC3)c2)cc(OC)c1OC` [Compound 1h, (2-(Pyrrolidin-1-yl)pyridin-4-yl)(3,4,5-trimethoxyphenyl)methanone], for which the solubility at 48 h in data set [1] was determined as 20 µg/mL (≈ 58.4 µM). For the same molecule, the “toxicity” value in data set [2] is listed as “very low toxicity”. Also, the “live cells with respect to the non-treated control (means ± S.E.M.)” value in data set [2] (0.25 µM) was determined as 103.84 ± 9.20%; in data set [2] (0.5 µM), 102.59 ± 14.73%. Further, the results for the IC50 in data set [3] and in data set [4] were 9100 nM and 18 nM, respectively.
Regarding `COc1cc(C(=O)c2cccc(N(C)C)c2)cc(OC)c1OC` [Compound 1f, (3-(Dimethylamino)phenyl)(3,4,5-trimethoxyphenyl)methanone], the solubility at 48 h in data set [1] stood at 11 µg/mL (≈ 34.9 µM). Also, the “toxicity” value in data set [2] is given as “very low toxicity”. For the same molecule, the results for the “live cells with respect to the non-treated control (means ± S.E.M.)” value in data set [2] (0.25 µM) and in data set [2] (0.5 µM) were 106.59 ± 17.60% and 95.97 ± 10.55%, respectively. Further, the IC50 in data set [3] is more than 20000 nM; in data set [4], 180 nM.
